Assay results published in patent publication US6825348B2, “Antiviral compounds” (Academia Sinica, priority 2002, dated 2004).
≈ marks a conversion by molar mass, not a printed value. Read-outs that look alike come from different tables or passages of the source.

Tests used:
[1] = biological target: T1, calf mucosal adenosine deaminase (ADA, EC 3.5.4.4) (Bos taurus, UniProt P56658); assay: Substrate activity and competitive inhibition of adenosine deaminase; type: biochemical; details: for Ki: inhibition of ADA with ara-A 3 as substrate
T1 sequence (P56658 1-363): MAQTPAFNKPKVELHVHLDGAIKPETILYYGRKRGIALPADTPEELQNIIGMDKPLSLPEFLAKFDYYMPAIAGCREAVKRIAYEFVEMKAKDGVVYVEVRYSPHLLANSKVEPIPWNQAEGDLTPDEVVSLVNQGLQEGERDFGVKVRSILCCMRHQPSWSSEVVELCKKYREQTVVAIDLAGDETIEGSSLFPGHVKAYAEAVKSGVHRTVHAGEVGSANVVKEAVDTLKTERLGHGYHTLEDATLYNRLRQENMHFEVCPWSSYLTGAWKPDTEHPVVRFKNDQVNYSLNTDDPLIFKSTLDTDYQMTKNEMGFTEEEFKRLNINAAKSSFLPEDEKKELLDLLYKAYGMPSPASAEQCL

PRPP synthetase = PRPP synthetase (UniProt P0A717); assay: PRPP synthetase reaction, conversion to diphosphates and inhibition of AMP phosphorylation; type: biochemical; details: inhibition of AMP phosphorylation, 37° C., 15 min
Protocol: Enzymatic Conversion of Acyclic Nucleoside Phosphonates and Nucleotide 5′-Monophosphate Analog to Their Antivirally Active Diphosphates (Triphosphate Equivalents). Substrate affinities of acyclic nucleoside phosphonates 4, 20, 21, and dinucleotide analog 24 for PRPP synthetase as well as their inhibitory effect against the enzyme were evaluated according to the established procedures. See, e.g., Balzarini et al. (1991) J. Biol. Chem. 266: 8686-8689 and references cited therein. The assays were then terminated after 4 h by the addition of MeOH. HPLC on an anion-exchange Partisphere column was used to analyze the formation of […] 21pp, PMEApp, 4pp, 20pp, and 24pp.

[2] = tested on: herpes simplex type 1 virus (HSV-1) (KOS); assay: Inhibition of HSV-1 cytopathogenicity in Vero cell culture; type: cell-based; details: Vero cell culture, 50% inhibition of virus-induced cytopathogenicity, mean of duplicates, for 1:1 (W/W) mixtures IC50 refers to known antiviral drugs; for IC50: Human alphaherpesvirus 1, read-out: IC50 HSV-1 (KOS)
[3] = tested on: thymidine kinase-deficient (TK−) varicella-zoster virus (YS/R); assay: microbe, parasite or virus in culture; type: cell-based
[4] = tested on: human cytomegalovirus (AD-169); assay: Inhibition of HCMV cytopathogenicity in Vero cell culture; type: cell-based; details: Vero cell culture, 50% inhibition of cytopathogenicity, for 1:1 mixtures IC50 refers to known antiviral drugs; for IC50: Human betaherpesvirus 5, AD169, read-out: IC50 HCMV (AD-169)
HIV-1 (IIIB) = assay: microbe, parasite or virus in culture; type: cell-based; details: MT4 cells, average of duplicates; for IC50: Human immunodeficiency virus 1, IIIB, read-out: IC50 HIV-1 (IIIB)
HIV-2 (LAV-2) = assay: Inhibition of HIV-2 cytopathogenicity in MT4 cells; type: cell-based, human immunodeficiency virus; details: MT4 cells, average of duplicates; for IC50: Human immunodeficiency virus 2, read-out: IC50 HIV-2 (LAV-2)
[5] = tested on: moloney murine sarcoma virus (MSV); assay: Inhibition of MSV cytopathogenicity in CEM cells (cell-protection assay); type: cell-based; details: CEM cells, average of duplicates; for IC50: Moloney murine sarcoma virus, CCRF-CEM, read-out: IC50 MSV
HSV-1 (KOS) = assay: Anti-HSV-1 activity in vivo, HSV-1-induced mortality in NMRI mice; details: 6 days; for mean day of animal death / mean day of symptom initiation: terminated day 21; for responders at 100 mg/kg / responders at 150 mg/kg / responders at 250 mg/kg: Human alphaherpesvirus 1, ip, 504 h
MT4 cells [6] = assay: Toxicity toward MT4 cells
CEM cells [7] = assay: Toxicity toward CEM cells
HeLa cells [8] = assay: Toxicity, morphological changes in HeLa cells
Vero cells [9] = assay: Toxicity, morphological changes in Vero cells
[10] = Lipophilicity, 1-octanol/water partition coefficient
[11] = Solubility in water (phosphate buffer, UV absorbance); details: for solubility at 20 h: pH 6.8, aqueous buffer, thermodynamic from solid
MSV = details: for mean day of animal death / percentage of MSV-infected mice alive at day 21 postinfection / percentage of MSV-infected mice without tumors at day 21 postinfection: two injections; for mean day of tumor initiation: two injections within two days
[12] = tested on: herpes simplex type 2 virus (HSV-2) (G); assay: Inhibition of HSV-2 cytopathogenicity in Vero cell culture; type: cell-based; details: 50% inhibition of cytopathogenicity, for 1:1 mixtures IC50 refers to known antiviral drugs
[13] = tested on: thymidine kinase-positive (TK+) varicella-zoster virus (YS); assay: Inhibition of TK+ VZV cytopathogenicity in Vero cell culture; type: cell-based; details: Vero cell culture; 50% inhibition of cytopathogenicity; for 1:1 mixtures IC50 refers to known antiviral drugs
HeLa cells [14] = tested on: HeLa cells
Vero cells [15] = tested on: Vero cells
MT4 cells [16] = tested on: MT4 cells
CEM cells [17] = tested on: CEM cells
[18] = 100 mg/kg/day i.p., read-out: percentage of HSV-1-infected mice alive at day 21 postinfection
[19] = 100 mg/kg/day i.p., read-out: percentage of HSV-1-infected mice without symptoms at day 21 postinfection
[20] = 150 mg/kg/day i.p., read-out: percentage of HSV-1-infected mice alive at day 21 postinfection
[21] = 150 mg/kg/day i.p., read-out: percentage of HSV-1-infected mice without symptoms at day 21 postinfection
[22] = 250 mg/kg/day i.p., read-out: percentage of HSV-1-infected mice alive at day 21 postinfection
[23] = 250 mg/kg/day i.p., read-out: percentage of HSV-1-infected mice without symptoms at day 21 postinfection

Molecule: Nc1ncnc2ncn(CCOCP(=O)(O)O)c12 [Compound 20, 7-[2-(Phosphonomethoxy)ethyl]adenine]
- ADA substrate / inhibitor property in words [1]: neither a good substrate nor an inhibitor
- Ki [1]: > 0.8 mM
- Ki (PRPP synthetase): 16.7 mM
- IC50 [2]: 20 µg/mL (≈ 73.2 µM)
- IC50 ([3]; Human alphaherpesvirus 3, Vero, read-out: IC50 TK−VZV (YS/R)): 8 µg/mL (≈ 29.3 µM)
- IC50 [4]: 21 µg/mL (≈ 76.9 µM)
- IC50 (HIV-1 (IIIB)): 7.8 µg/mL (≈ 28.6 µM)
- IC50 (HIV-2 (LAV-2)): 9.1 µg/mL (≈ 33.3 µM)
- IC50 [5]: 27 µg/mL (≈ 98.8 µM)
- mean day of animal death (HSV-1 (KOS); 100 mg/kg/day i.p.): 15.4 ± 1.3 days
- mean day of symptom initiation (HSV-1 (KOS); 100 mg/kg/day i.p.): 12.8 ± 1.1 days
- mean day of animal death (HSV-1 (KOS); 150 mg/kg/day i.p.): 17.8 ± 1.5 days
- mean day of symptom initiation (HSV-1 (KOS); 150 mg/kg/day i.p.): 15.0 ± 0.9 days
- mean day of animal death (HSV-1 (KOS); 250 mg/kg/day i.p.): 20.0 ± 1.7 days
- mean day of symptom initiation (HSV-1 (KOS); 250 mg/kg/day i.p.): 16.8 ± 2.4 days
- responders at 100 mg/kg (HSV-1 (KOS); [18]): 70%
- responders at 100 mg/kg (HSV-1 (KOS); [19]): 51%
- responders at 150 mg/kg (HSV-1 (KOS); [20]): 80%
- responders at 150 mg/kg (HSV-1 (KOS); [21]): 62%
- responders at 250 mg/kg (HSV-1 (KOS); [22]): 95%
- responders at 250 mg/kg (HSV-1 (KOS); [23]): 75%
- MT4 cell, concentration reducing the number of viable uninfected cells by 50% (MT4 cells [6]): >300 µg/mL
- CEM cell, concentration reducing the number of viable uninfected cells by 50% (CEM cells [7]): >300 µg/mL
- HeLa cell, concentration causing microscopically visible change or disruption in about 50% of the cell sheet (HeLa cells [8]): 236 µg/mL
- Vero cell, concentration causing microscopically visible change or disruption in about 50% of the cell sheet (Vero cells [9]): 246 µg/mL
- logP at […] [10]: 0.95
- solubility at 20 h [11]: 2890 µg/mL (≈ 10600 µM)

Molecule: Nc1ncnc2c1ncn2CCOCP(=O)(O)O [PMEA 4, 9-[2-(phosphonomethoxy)ethyl]adenine, reference compound]
- ADA substrate / inhibitor property in words [1]: neither a good substrate nor an inhibitor
- Ki [1]: > 0.8 mM
- Ki (PRPP synthetase): 3.02 mM
- IC50 [2]: 11 µg/mL (≈ 40.3 µM)
- IC50 [4]: 15 µg/mL (≈ 54.9 µM)
- IC50 (HIV-1 (IIIB)): 4.1 µg/mL (≈ 15 µM)
- IC50 (HIV-2 (LAV-2)): 3.8 µg/mL (≈ 13.9 µM)
- IC50 [5]: 2 µg/mL (≈ 7.32 µM)
- mean day of animal death (HSV-1 (KOS); 100 mg/kg/day i.p.): 17.0 ± 1.1 days
- mean day of symptom initiation (HSV-1 (KOS); 100 mg/kg/day i.p.): 14.7 ± 1.4 days
- protection against HSV-induced mortality (HSV-1 (KOS); 150 mg/kg dose level i.p.): full protection
- mean day of animal death (HSV-1 (KOS); 150 mg/kg/day i.p.): >21 days
- mean day of symptom initiation (HSV-1 (KOS); 150 mg/kg/day i.p.): 18.5 ± 1.9 days
- mean day of animal death (HSV-1 (KOS); 250 mg/kg/day i.p.): >21 days
- mean day of symptom initiation (HSV-1 (KOS); 250 mg/kg/day i.p.): >21 days
- responders at 100 mg/kg (HSV-1 (KOS); [18]): 77%
- responders at 100 mg/kg (HSV-1 (KOS); [19]): 56%
- responders at 150 mg/kg (HSV-1 (KOS); [20]): 100%
- responders at 150 mg/kg (HSV-1 (KOS); [21]): 80%
- responders at 250 mg/kg (HSV-1 (KOS); [22]): 100%
- responders at 250 mg/kg (HSV-1 (KOS); [23]): 100%
- mean day of animal death (MSV; 10 mg/kg/day i.p.): 13.0 ± 1.1 days
- percentage of MSV-infected mice alive at day 21 postinfection (MSV; 10 mg/kg/day i.p.): (42%)
- percentage of MSV-infected mice without tumors at day 21 postinfection (MSV; 10 mg/kg/day i.p.): (19%)
- mean day of tumor initiation (MSV; 10 mg/kg/day i.p.): 9.6 ± 1.5 days
- percentage of MSV-infected mice without tumors at day 21 postinfection (MSV; 10 mg/kg/day i.p., listed as 4): 19%
- mean day of animal death (MSV; 20 mg/kg/day i.p.): 15.9 ± 1.7 days
- percentage of MSV-infected mice alive at day 21 postinfection (MSV; 20 mg/kg/day i.p.): (76%)
- percentage of MSV-infected mice without tumors at day 21 postinfection (MSV; 20 mg/kg/day i.p.): (58%)
- mean day of tumor initiation (MSV; 20 mg/kg/day i.p.): 12.0 ± 1.3 days
- mean day of animal death (MSV; 50 mg/kg/day i.p.): 17.8 ± 2.0 days
- percentage of MSV-infected mice alive at day 21 postinfection (MSV; 50 mg/kg/day i.p.): (96%)
- percentage of MSV-infected mice without tumors at day 21 postinfection (MSV; 50 mg/kg/day i.p.): (84%)
- mean day of tumor initiation (MSV; 50 mg/kg/day i.p.): 12.5 ± 1.6 days
- MT4 cell, concentration reducing the number of viable uninfected cells by 50% (MT4 cells [6]): 274 µg/mL
- CEM cell, concentration reducing the number of viable uninfected cells by 50% (CEM cells [7]): 285 µg/mL
- HeLa cell, concentration causing microscopically visible change or disruption in about 50% of the cell sheet (HeLa cells [8]): 146 µg/mL
- Vero cell, concentration causing microscopically visible change or disruption in about 50% of the cell sheet (Vero cells [9]): 175 µg/mL
- logP at […] [10]: 0.69
- solubility at 20 h [11]: 1970 µg/mL (≈ 7210 µM)

Molecule: [1-(Guanine-9-yl-ethoxy)methyl]phosphono-6-yl-(Z)-4-(ethylidene)-2,3-dimethoxy-Δ^a,b-butenolide [Compound 29]
- IC50 HSV-1 (KOS) [2]: 0.42 µg/mL
- IC50 HSV-2 (G) [12]: 0.28 µg/mL
- IC50 TK+VZV (YS) [13]: 0.0070 µg/mL
- IC50 TK−VZV (YS/R) ([3]; Vero cell culture, 50% inhibition of cytopathogenicity, for 1:1 mixtures IC50 refers to known antiviral drugs): 0.0080 µg/mL
- IC50 HCMV (AD-169) [4]: 0.020 µg/mL
- IC50 HIV-1 (IIIB) (HIV-1 (IIIB)): 6.0 µg/mL
- IC50 HIV-2 (LAV-2) (HIV-2 (LAV-2)): 7.1 µg/mL
- IC50 MSV [5]: 0.020 µg/mL
- HeLa cell, concentration causing microscopically visible change or disruption in about 50% of the cell sheet (HeLa cells [14]): 8.8 µg/mL
- Vero cell, concentration causing microscopically visible change or disruption in about 50% of the cell sheet (Vero cells [15]): 6.6 µg/mL
- MT4 cell, concentration reducing the number of viable uninfected cells by 50% (MT4 cells [16]): 14 µg/mL
- CEM cell, concentration reducing the number of viable uninfected cells by 50% (CEM cells [17]): 13 µg/mL
- log P (1-octanol/water) ([10]; P = [substrate]1-octanol/[substrate]H2O, phosphate buffer 0.10 M): 0.79
- solubility in water ([11]; phosphate buffer 0.10 M, pH 6.8, agitated 20 h): 2050 µg/mL
